Results: patent US20100016294A1, “METHODS FOR REDUCING THE RISK OF AN ADVERSE DRUG I[…] A PATIENT SUFFERING FROM INSOMNIA” (QUESTCOR PHARMACEUTICALS, INC., priority 2008, published 2010)

Target: T1, CYP2B6 (Homo sapiens, UniProt P20813)
T1 sequence (P20813 1-491): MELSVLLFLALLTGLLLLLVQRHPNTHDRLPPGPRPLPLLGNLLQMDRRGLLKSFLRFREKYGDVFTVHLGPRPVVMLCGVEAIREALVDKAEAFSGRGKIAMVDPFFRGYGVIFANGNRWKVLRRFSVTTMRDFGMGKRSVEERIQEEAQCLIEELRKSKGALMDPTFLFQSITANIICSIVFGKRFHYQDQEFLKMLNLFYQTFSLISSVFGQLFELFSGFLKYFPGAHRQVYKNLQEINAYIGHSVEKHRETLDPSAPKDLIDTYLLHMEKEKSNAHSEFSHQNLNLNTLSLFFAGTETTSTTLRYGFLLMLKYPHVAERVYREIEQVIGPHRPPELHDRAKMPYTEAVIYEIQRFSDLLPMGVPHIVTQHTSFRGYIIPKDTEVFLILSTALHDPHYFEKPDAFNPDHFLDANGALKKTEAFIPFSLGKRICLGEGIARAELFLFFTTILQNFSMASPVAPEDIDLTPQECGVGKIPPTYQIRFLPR
Test: Direct inhibition of CYP2B6 (Bupropion hydroxylase) activity in pooled human liver microsomes
Details: pH 7.4, probe Bupropion (hydroxylation to hydroxyBupropion)
Experimental: The total amount of organic solvent was ≦1%. Each incubation included 0.1 M phosphate buffer (pH 7.4), substrate, inhibitor and microsomal protein in a final volume of approximately 0.5 mL. Reactions were initiated by addition of NADPH (1 mM final concentration) and incubated for the indicated times at 37° C. with gentle agitation.
Control incubations included positive inhibitor control samples for direct inhibition as well as samples without NADPH. All reactions were terminated by the addition of organic solvent, and internal standard was added (when appropriate), and samples were mixed and centrifuged at approximately 3000 rpm for 10 minutes. The organic layer was transferred to a clean tube and evaporated to dryness at about 40° C. under nitrogen. The sample was reconstituted and analyzed by LC MS/MS.
Incubations to determine CYP2B6-mediated conversion of Bupropion to hydroxyBupropion (OHBP) in microsomal preparations were terminated by addition of 2.5 mL isoamyl alcohol: ethyl acetate (1:100, v:v). The internal standard, hydroxyBupropion-d6, and a saturated sodium chloride solution (0.25 mL) were added to all samples. […]
Reaction velocities (V) were calculated using Equation 1:
V(nmol/min/mg)=calculated ng/mL×0.5mL/(MW ng/nmol)/min/mg Equation 1
Percentage of remaining activity was determined using the following equation: […]

Work on `S=P(N1CC1)(N1CC1)N1CC1` [Positive Control, ThioTEPA] yielded an activity at 75 μM of 22.8%.
